Test results: PMC3797749, “Functional Characterisation of the Maturation of the Blood-Brain Barrier in Larval Zebrafish” (PLoS ONE, 2013)
Each block holds one molecule with its values, some of them ahead of it.

Assays:
zebrafish larvae [1] = experiment: in vivo; settings: for Absorption (whole body) (% uptake): 15 µg/ml (5 µg/ml scopolamine) immersion 1 hour, tissue vs medium concentration; for drug level (LC/MS/MS): 5 µg/ml 1 hour
Procedure: (§1) Initial drug exposure assays were performed in larval zebrafish to identify a sufficiently high concentration of drug that could be detected by liquid chromatography/tandem mass spectrometry (LC/MS/MS) analysis without causing toxicity. Maximum tolerated concentration (MTC) was determined using n=6 larvae per group. […] Compounds of interest were prepared as 2 mg/ml stocks in dimethyl sulfoxide (DMSO). […] Larvae were incubated in the drug for 1 hour at room temperature then anaesthetised on ice. For whole uptake analysis, anaesthetised larvae were transferred to 1.5 ml microfuge tubes and all excess liquid was removed. 100 µl ice cold PBS was added, samples were briefly centrifuged and all excess liquid was removed. For brain versus body uptake analysis, larvae were anaesthetised by chilling prior to decapitation using fine iridectomy scissors and No. 5 watchmaker forceps. Head and body tissue samples were collected in separate microfuge tubes on ice and excess liquid removed. 100 µl ice cold PBS was added and samples were briefly centrifuged and all excess liquid removed. The weight of the tissue sample was measured and the samples were frozen at -20 °C prior to extraction for LC/MS/MS.
(§2) Test compound was added to the well containing 50 µg/ml verapamil and larvae were incubated for a further hour at room temperature prior to tissue collection as described. For subsequent LC/MS/MS analysis, tissue samples were thawed and after addition of an internal standard (clozapine) extracted into an organic solvent (tertiary-butyl methyl ether, t-bme). […] The analytes and internal standard were ionised under atmospheric pressure chemical ionisation (APCI) conditions operating in positive ion mode. Detection was via tandem mass spectrometry (MS/MS) using selected ion monitoring (SIM). All analyses were performed using a Finnigan LCQ quadrupole ion trap mass spectrometer.
(§3) A panel of 5 drugs known to either cross or not cross the BBB in mammals were selected to test in zebrafish larvae. Larvae of different ages were exposed to these compounds at non-toxic concentrations for 1 hour prior to collection of head and trunk tissue for analysis of drug concentration. A generic extraction method was developed and LC/MS/MS was performed to analyse the concentration of drug in head and trunk tissue in larvae of different ages. Drug/tissue concentrations were normalised against a standard and the relative amount of drug in head and trunk samples was compared to determine whether the drug distribution altered with larval age (Table 2).

in vivo = settings: zebrafish, in vivo, immersion 1 hour
Procedure: as §1, §2, §3

zebrafish larvae [2] = experiment: Dye exclusion experiments (pericardial injection, brain fluorescence quantification); format: in vivo
Procedure: Stocks of 2% Evans blue (961 Da) and 10% sodium fluorescein (376 Da) in 0.9% saline were prepared and stored at 4 °C. Larvae were anaesthetised by immersion in 0.2 mg/ml 3-amino benzoic acid (MS222) prior to being immobilised and positioned laterally in 3% methyl cellulose in embryo medium such that the heart was accessible. Larvae and juveniles from 2 days post-fertilisation (d.p.f.) to 30 d.p.f. were injected with 0.5 to 2 nl (depending on age) of dye or saline control into the pericardial region, using a standard zebrafish microinjection apparatus. Fish were transferred to fresh embryo medium to recover from anaesthesia, then viewed using a fluorescence dissecting microscope at 1 hour intervals to determine the time of uptake of the dye into the circulation and the time at which dye had permeated from the circulation into non-vascular body tissue. Representative images of dye distribution in vivo were taken on a Zeiss AxioZoom V16 microscope with Apotome. Dye and saline injected larvae were anaesthetised at 4 or 6 hours after injection and fixed in 4% paraformaldehyde in PBS. Ten larvae per age group and injection treatment were embedded in Sakura Tissue-Tek OCT (Bayer, Newbury, UK) and frozen parasagittal sections were cut at 10 µm thickness.
Sections were visualised without mounting medium by fluorescence microscopy on an Olympus BX51 microscope. Three midline sagittal sections from each larva were identified and images were captured using a ColorView camera (Olympus) and AnalySis software (Soft Imaging System). The fluorescence intensity within the brain was quantified for each midline section of each larva in each treatment group using colour threshold and area measurements in AnalySis. Mean values, standard deviations and Student’s t-tests were calculated using Excel software (Microsoft Office).
Rhodamine 123 (R123) was dissolved in 10% ethanol/0.9% saline to make a 0.5 mg/ml stock. […] Quantification of fluorescence in the brain was performed as described above.

[3] = known from mammals, no reference given; cited from earlier work
Abcb1/4/5 = experiment: Rhodamine 123 dye exclusion in the presence of verapamil; format: in vivo, zebrafish; settings: 8 d.p.f. and 10 d.p.f.; verapamil 50 µg/ml; 3 hours after injection
Procedure: Dye exclusion experiments on larvae at 3, 5, 8 and 10 d.p.f. were performed as described above using 0.2 nl R123. Some larvae were exposed to verapamil at 50 µg/ml for 2 hours prior to and during intrapericardial injection of R123 and for 3 hours after injection. At 3 hours after injection, larvae were anaesthetised and fixed in 4% PFA prior to processing for frozen sections. Quantification of fluorescence in the brain was performed as described above.

[4] = ref ChemIDplus; cited from earlier work
[5] = 15 µg/ml, Head concentration, 5 d.p.f.
[6] = 15 µg/ml, Head concentration, 8 d.p.f.
[7] = 15 µg/ml, Trunk concentration, 5 d.p.f.
[8] = 15 µg/ml, Trunk concentration, 8 d.p.f.
[9] = pericardial injection, brain fluorescence on frozen sections vs saline

Molecule: Clc1ccc2c(c1)CCc1cccnc1C2=C1CCNCC1 [Desloratadine]
Absorption (whole body) (% uptake) (zebrafish larvae [1]; 5 d.p.f.): 14.8%
Absorption (whole body) (% uptake) (zebrafish larvae [1]; 10 d.p.f.): 28.5%

Molecule: CN(C)CCOC(c1ccccc1)c1ccccc1 [Diphenhydramine]
concentration at 1 h (in vivo; [5]): 21600 ng/g
concentration at 1 h (in vivo; [6]): 31200 ng/g
concentration at 1 h (in vivo; [7]): 21100 ng/g
concentration at 1 h (in vivo; [8]): 24000 ng/g
concentration at 1 h (in vivo; Head concentration, 10 d.p.f.): 52800 ng/g
concentration at 1 h (in vivo; Trunk concentration, 10 d.p.f.): 54800 ng/g

larval age at which the injected dye is excluded from the brain (zebrafish larvae [2]; zebrafish, in vivo, 3 h): 5 d.p.f.
Molecule: Cc1cc(-c2ccc(/N=N/c3ccc4c(S(=O)(=O)O)cc(S(=O)(=O)O)c(N)c4c3O)c(C)c2)ccc1/N=N/c1ccc2c(S(=O)(=O)O)cc(S(=O)(=O)O)c(N)c2c1O [Evans blue]

Molecule: O=C(CCCN1CCC(O)(c2ccc(Cl)cc2)CC1)c1ccc(F)cc1 [Haloperidol]
concentration at 1 h (in vivo; [5]): 116000 ng/g
concentration at 1 h (in vivo; [6]): 136000 ng/g
concentration at 1 h (in vivo; [7]): 104000 ng/g
concentration at 1 h (in vivo; [8]): 149000 ng/g
concentration at 1 h (in vivo; Head concentration, 10 d.p.f.): 113000 ng/g
concentration at 1 h (in vivo; Trunk concentration, 10 d.p.f.): 101000 ng/g
amount of drug absorbed, larval tissue as % of the medium concentration (zebrafish larvae [1]; 1 hour exposure, lowest and highest value over drugs and ages): 949%
Absorption (whole body) (% uptake) (zebrafish larvae [1]; 5 d.p.f.): 732.6%
Absorption (whole body) (% uptake) (zebrafish larvae [1]; 8 d.p.f.): 949.5%
Absorption (whole body) (% uptake) (zebrafish larvae [1]; 10 d.p.f.): 713.5%
BBB penetration in mammals [3]: (penetrant)

exclusion of R123 from the brain in the presence of verapamil (Abcb1/4/5): failed to be excluded
larval age at which the injected dye is excluded from the brain (zebrafish larvae [2]; [9]): 8 d.p.f.
Molecule: COC(=O)c1ccccc1-c1c2ccc(=N)cc-2oc2cc(N)ccc12 [Rhodamine 123]

Molecule: CN1[C@@H]2C[C@@H](OC(=O)[C@H](CO)c3ccccc3)C[C@H]1[C@@H]1O[C@@H]12 [Scopolamine]
drug level (LC/MS/MS) (zebrafish larvae [1]; 5 d.p.f.): below the detection limits
drug level (LC/MS/MS) (zebrafish larvae [1]; 8 d.p.f.): below the detection limits
Head concentration (zebrafish larvae [1]; 10 d.p.f., immersion 1 hour): .65 µg/g
Trunk concentration (zebrafish larvae [1]; 10 d.p.f., immersion 1 hour): .63 µg/g

Molecule: O=C([O-])c1ccccc1-c1c2ccc(=O)cc-2oc2cc([O-])ccc12.[Na+].[Na+] [Sodium fluorescein, sodium fluorescein]
larval age at which the injected dye is excluded from the brain (zebrafish larvae [2]; [9]): 10 d.p.f.

Molecule: Scopolamine N-butyl bromide
LogP [4]: -1.11
